According to patent publication US10076522B2, “Systems and methods for treating bacterial infection” (priority 2016, dated 2018):
“Also recorded” adds a separate entry of the source.

What was measured:
[1] = human, in vivo
cSSSIs = experiment: Phase III ASSIST trials, efficacy in cSSSI; format: in vivo, human; details: 0.8 mg/kg over 0.5 hr q12h IV
Description: Without wishing to be bound by a particular theory, one observed disadvantage of the weight-based dosing in the previous Phase III studies is that the post-antibiotic effect achieved by the weight-based doses was not enough to sustain the T>MIC between doses. Sufficient efficacy might be achieved by increasing the amount of iclaprim administered to the subject. However, as discussed above, simply increasing the weight-based dose of iclaprim risks causing QTc prolongation.

[2] = in vivo
[3] = Exposure to iclaprim in Phase I studies; details: human, plasma, intravenous, HMR 01-014, Multiple Dose Q12H × 9 days, arithmetic mean
[4] = 13-week toxicology study in the rat, AUC at NOAEL; details: in vivo
[5] = 13-week toxicology study in the marmoset, AUC at NOAEL; details: monkey, in vivo
[6] = 150 mg, 150 mg/EtOH & NS (20 min)

COc1cc(Cc2cnc(N)nc2N)c2c(c1OC)OC(C1CC1)C=C2 (racemic) [Iclaprim]
adverse events related to QTc prolongation [1]: 4 cases | efficacy, non-inferiority (−10% margin) to linezolid (cSSSIs): did not meet the FDA criteria of non-inferiority to linezolid; also recorded: failed to show efficacy | dose-related increase in QTc [2]: did not | AUC ([3]; 75 mg, 75 mg/10% PG (20 min)): 1660 ng·h/mL | Cmax ([3]; 75 mg, 75 mg/10% PG (20 min)): 1290 ng/mL | AUC ([3]; 150 mg, 150 mg/10% PG (20 min)): 3600 ng·h/mL | AUC [3, 6]: 3220 ng·h/mL | Cmax ([3]; 150 mg, 150 mg/10% PG (20 min)): 2350 ng/mL | Cmax [3, 6]: 1870 ng/mL | AUC at 13 week ([4]; female): 20400 ng·h/mL | AUC at 13 week ([4]; male): 7260 ng·h/mL | AUC at 13 week ([5]; female): 26600 ng·h/mL | AUC at 13 week ([5]; male): 26900 ng·h/mL
